Data from paper PMC6539903 (Molecules, 2019).

Key:
[1] = test system: SW620 xenografts tumor model; assay: SW620 xenograft model in vivo; details: nude mice, 20 mg/kg intraperitoneal every 2 days, start about 100 mm^3
Protocol: In view of potent cox-2 selective inhibitory activity and anti-colon cancer proliferation activity in vitro, compound 4b was further evaluated for anti-colon cancer activity in vivo. SW620 cells (5 × 10^6) were subcutaneously injected into the rightwing nude mice to establish a xenograft model. […]. Intraperitoneal administration was performed every 2 days and tumor volume changes were recorded for 12 consecutive days. […]. After 12 days of treatment, the tumor volumes of the two treatment groups were 43.71 mm^3 and 51.69 mm^3, respectively. Finally, the tumors of each group were removed and weighed to calculate the ratio of tumor weight to body weight. […] In contrast, body weight increased slightly in the vehicle group at the later stage of treatment (Figure 5C). […] This series of representative compounds 4b, as a selective COX-2 inhibitor for the targeted therapy of colon cancer, had prominent research prospect.
Nude mice aged 6-8 weeks were purchased from the model animal research center of nanjing university and bred in a specific non-pathogenic environment. A xenograft model was established by subcutaneous injection of SW620 cells […] DMEM into the right wing (18–22 g) of nude mice. […]. Vehicle treatment groups were treated with polyethylene glycol (containing 1% DMSO). […] After administration, weighed every two days and measured tumor volume with a vernier caliper. […]

[2] = test system: SW620 cells; assay: Cell apoptosis assay (Annexin V-FITC/PI flow cytometry); type: cell-based, human; details: 24 h (0 μM: 7.9%)
Protocol: To confirm that antiproliferation activities of SW620 were associated with apoptosis, SW620 cell apoptosis induced by compound 4b was determined using flow cytometry with Annexin V-FITC/PI Apoptosis Detection Kit. […] The percentages of cell apoptosis 7.9%, 19.9%, 45.9%, and 65.0% were responding to the concentration of compound 4b 0 μM, 2.0 μM, 4.0 μM, and 8.0 μM, respectively.
SW620 cells were seeded in the 6-well plate ([…]) and treated with compound 4b to induce apoptosis at final concentrations of 0, 2, 4, and 8 μM for 24 h. After incubation, the cells were extracted with trypsin and washed with cold PBS twice. Cells are then bound to 500 μL buffer and then annexin-v/FITC (5 μL) and PI (5 μL) were added to the medium for another 10 min to incubate darkness. Staining cells were analyzed by flow cytometry (Becton Dickinson, Franklin, NJ, USA). Flowjo 7.6.1 software (Emerald Biotech Co. Ltd., Hangzhou, China) was used for statistical analysis.

[3] = test system: MCF-7; assay: MTT antiproliferation assay, MCF-7; type: cell-based; details: Homo sapiens, MCF7, 48 h, n = 3, read-out: IC50 ± SD MCF-7
Protocol: (§1) MCF-7 (human breast cell line), HeLa (human cervical cell line), A549 (human lung cell line), HepG2 (human liver cell line), SW620 (human colorectal cell line) and a non-cancer cell line, NCM460 (Human colonic epithelial cells) were preserved at the State Key Laboratory of Pharmaceutical Biotechnology, Nanjing University (Nanjing, China).
(§2) The antiproliferative activity of the synthetic compounds against the SW620, MCF-7, HeLa, A549, HepG2, and NUM460 cell lines was evaluated by a colorimetric assay based on a modified standard (MTT). […] Thereafter, MTT (5 mg/mL in PBS) was added to each well and incubated for 4 h. 150 μL of DMSO was added to each well and shaken with a shaker. The absorbance (OD 570 nm) was read at 630 nm on an ELISA reader (ELx800, BioTek, montpelier, VT, USA). IC50 values for the compounds were calculated by comparison to DMSO treated control wells. Three replicate wells were used for each drug concentration. Each assay was performed three times.

[4] = MTT cytotoxicity assay, non-cancer colon cells; type: cell-based; details: human, NCM460 colonic epithelial cells (non-cancer cell line), n = 3, non-cancer cell line, read-out: CC50 ± SD NUM460
Protocol: Besides, the MTT assay was performed on a non-cancer line NCM460 to assess the cytotoxicity of the test compound to normal colon cells.
as §1, §2

[5] = test system: HeLa; assay: MTT antiproliferation assay, HeLa; type: cell-based; details: Homo sapiens, 48 h, n = 3, read-out: IC50 ± SD HeLa
Protocol: as §1, §2

[6] = biological target: T1, COX-1 (Homo sapiens, UniProt P23219); assay: COX-1 inhibition assay (COX-1 ELISA kit); type: biochemical; details: mean of four determinations; read-out: IC50 ± SD COX-1
T1 construct: purchased Cayman Chemical 701170
Protocol: (§3) 3-(4,5-Dimethylthiazol-2-yl)-2,5-diphenyltetrazolium (MTT) were purchased from Beyotime Institute of Biotechnology (Haimen, China). Annexcin V-FITC cell apoptosis assay kit (catalog No.BA11100) was purchased from BIO-BOX (Nanjing, China). Fibronectin (#F1056) and laminin (#L2020) were purchased from Sigma-Aldrich (St. Louis, MO, USA).
(§4) Then 1 M HCl was added to the reaction mixture to stop the reaction, and one-tenth of the volume of saturated stannous chloride (50 mg/mL) was added. The reaction mixture was incubated at room temperature for 5 min, and PGF2 and PGH2 were produced.

[7] = test system: HepG2; assay: MTT antiproliferation assay, HepG2; type: cell-based; details: Homo sapiens, 48 h, n = 3, read-out: IC50 ± SD HepG2
Protocol: as §1, §2

[8] = test system: A549; assay: MTT antiproliferation assay, A549; type: cell-based; details: Homo sapiens, 48 h, n = 3, read-out: IC50 ± SD A549
Protocol: as §1, §2

[9] = test system: SW620 cells; assay: MTT antiproliferation assay, SW620; type: cell-based; details: Homo sapiens, SW-620, 48 h, n = 3, read-out: IC50 ± SD SW620
Protocol: as §1, §2

[10] = biological target: T2, COX-2 (Homo sapiens, UniProt P35354); assay: COX-2 inhibition assay (COX-2 ELISA kit); type: biochemical
T2 construct: purchased Cayman Chemical 701180
T2 sequence (P35354 18-604): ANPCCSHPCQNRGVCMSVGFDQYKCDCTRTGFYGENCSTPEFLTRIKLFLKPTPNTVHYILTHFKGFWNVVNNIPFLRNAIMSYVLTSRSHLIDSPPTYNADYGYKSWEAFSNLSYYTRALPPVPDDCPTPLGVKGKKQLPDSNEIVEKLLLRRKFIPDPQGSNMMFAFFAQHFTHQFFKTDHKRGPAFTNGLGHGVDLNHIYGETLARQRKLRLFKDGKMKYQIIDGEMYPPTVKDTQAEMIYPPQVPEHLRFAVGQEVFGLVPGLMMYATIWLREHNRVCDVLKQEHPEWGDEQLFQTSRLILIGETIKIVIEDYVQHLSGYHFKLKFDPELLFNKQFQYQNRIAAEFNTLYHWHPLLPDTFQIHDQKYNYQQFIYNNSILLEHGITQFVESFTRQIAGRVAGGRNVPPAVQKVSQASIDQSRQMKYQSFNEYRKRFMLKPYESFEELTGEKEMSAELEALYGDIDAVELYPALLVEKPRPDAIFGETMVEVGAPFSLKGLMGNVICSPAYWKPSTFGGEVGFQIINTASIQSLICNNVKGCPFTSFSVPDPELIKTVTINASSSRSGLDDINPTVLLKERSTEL
Protocol: as §3, §4

T1 sequence (P23219 24-599): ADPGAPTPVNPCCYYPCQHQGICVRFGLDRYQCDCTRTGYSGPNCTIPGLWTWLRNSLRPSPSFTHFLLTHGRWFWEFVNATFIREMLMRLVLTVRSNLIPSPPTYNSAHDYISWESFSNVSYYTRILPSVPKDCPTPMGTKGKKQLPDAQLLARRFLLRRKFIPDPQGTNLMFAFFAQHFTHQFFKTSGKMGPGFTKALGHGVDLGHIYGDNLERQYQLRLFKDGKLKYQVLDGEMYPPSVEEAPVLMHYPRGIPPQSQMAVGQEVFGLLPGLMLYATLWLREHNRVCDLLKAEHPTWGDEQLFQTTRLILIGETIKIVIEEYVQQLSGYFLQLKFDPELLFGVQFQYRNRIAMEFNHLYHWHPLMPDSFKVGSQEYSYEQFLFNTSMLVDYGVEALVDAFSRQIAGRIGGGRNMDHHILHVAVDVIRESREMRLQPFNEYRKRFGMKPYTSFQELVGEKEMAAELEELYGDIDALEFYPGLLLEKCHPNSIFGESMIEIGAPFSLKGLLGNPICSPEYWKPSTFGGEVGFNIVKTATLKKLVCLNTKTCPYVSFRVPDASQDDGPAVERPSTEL

IC50 [3] [nM]	IC50 [5] [nM]	IC50 [6] [nM]	melting point [°C]	IC50 [7] [nM]	IC50 [8] [nM]	IC50 [9] [nM]	Selectivity Index (SI) (COX-1 IC50/COX-2 IC50) ([10]; in vitro COX-2 selectivity index)	IC50 ([10]; mean of four determinations, read-out: IC50 ± SD COX-2) [nM]	SMILES	tumor volume after 12 days of treatment [1] [mm^3]	percentage of cell apoptosis ([2]; SW620, 2.0 μM) [%]	percentage of cell apoptosis ([2]; SW620, 4.0 μM) [%]	percentage of cell apoptosis ([2]; SW620, 8.0 μM) [%]	CC50 at 48 h [4] [nM]
–	–	–	–	–	–	–	–	–	Cc1ccc(-c2cc(C(F)(F)F)nn2-c2ccc(S(N)(=O)=O)cc2)cc1 [Celecoxib, reference compound]	51.69	–	–	–	–
2990 ± 130	2980 ± 170	48060 ± 350	200 to 201	2960 ± 140	1940 ± 60	860 ± 20	137.3	350 ± 20	Cc1ccc(C2=NN(c3ccc(S(N)(=O)=O)cc3)C(c3ccc4c(c3)OCO4)C2)cc1 (stereo not drawn) [Compound 4b, 4-(5-(Benzo[d][1,3]dioxol-5-yl)-3-(p-tolyl)-4,5-dihydro-1H-pyrazol-1-yl)benzenesulfonamide]	43.71	19.9	45.9	65.0	134000 ± 7850
